Key:
[1] = test system: HT-29; assay: Cytotoxicity against human HT29 cells; format: functional, cell-based
[2] = test system: NCI/ADR-RES; assay: Cytotoxicity against human NCI/ADR-RES cells; format: functional, cell-based

How did the IC50 [1] turn out when `C[C@]12CC[C@H](N(OCc3ccccc3)OC3OC[C@H](O)[C@@H](O)[C@@H]3O)C[C@H]1CC[C@@H]1[C@@H]2CC[C@]2(C)[C@@H](C3=CC(=O)OC3)CC[C@]12O` (stereo partly drawn) was run?
The IC50 was over 1000 nM.

With `CC(C)ON(OC1OC[C@H](O)[C@H](O)[C@@H]1O)[C@H]1CC[C@@]2(C)[C@H](CC[C@@H]3[C@@H]2CC[C@]2(C)[C@@H](C4=CC(=O)OC4)CC[C@]32O)C1` (stereo partly drawn) as the compound, how does the IC50 [2] read?
The IC50 was 110 nM.

How did the IC50 [2] turn out when `CC(C)ON(OC1OC[C@H](O)[C@@H](O)[C@@H]1O)[C@H]1CC[C@@]2(C)[C@H](CC[C@@H]3[C@@H]2CC[C@]2(C)[C@@H](C4=CC(=O)OC4)CC[C@]32O)C1` (stereo partly drawn) was run?
Its IC50 is 120 nM.
